Data set [1] in a line: Volume of distribution at steady state in Sprague-Dawley rat at 1 mg/ml/kg, iv dissolved in 10% HP-beta-CD. The format is ADME, organism-based. To be noted: in vivo, 1 mg/kg, read-out: Vdss.
A short description of data set [2]: Drug concentration in liver of Sprague-Dawley rat at 30 mg/kg, po dissolved in 40% HP-beta-CD measured after 360 mins by LC-MS/MS analysis. The format is ADME, organism-based. To be noted: read-out: Drug uptake.
Data set [3] is described as follows: Drug concentration in ileum of Sprague-Dawley rat at 30 mg/kg, po dissolved in 40% HP-beta-CD measured after 360 mins by LC-MS/MS analysis. As to conditions: read-out: Drug uptake. The format is ADME, organism-based.
Data set [4] in a line: Cmax in Sprague-Dawley rat at 30 mg/5 ml/kg, po dissolved in 40% HP-beta-CD. The format is ADME, organism-based. On the set-up: dose 5 ml/kg, route oral. To be noted: in vivo, 30 mg/kg.
A short description of data set [5]: Drug excretion in Sprague-Dawley rat urine at 1 mg/ml/kg, iv dissolved in 10% HP-beta-CD by LC-MS/MS analysis. As to conditions: 1 mg/kg, read-out: Drug excretion. The format is ADME, organism-based.
The nature of data set [6]: AUC (0 to 360 mins) in Sprague-Dawley rat at 1 mg/ml/kg, iv dissolved in 10% HP-beta-CD by LC-MS/MS analysis. On the set-up: dose 1 mg/ml/kg, time < 6 hr, route intravenous. The format is ADME, organism-based. To be noted: in vivo, 1 mg/kg.
Data set [7] concerns the target T1, Bile acid receptor (Homo sapiens, UniProt Q96RI1).
T1 sequence (Q96RI1 whole entry): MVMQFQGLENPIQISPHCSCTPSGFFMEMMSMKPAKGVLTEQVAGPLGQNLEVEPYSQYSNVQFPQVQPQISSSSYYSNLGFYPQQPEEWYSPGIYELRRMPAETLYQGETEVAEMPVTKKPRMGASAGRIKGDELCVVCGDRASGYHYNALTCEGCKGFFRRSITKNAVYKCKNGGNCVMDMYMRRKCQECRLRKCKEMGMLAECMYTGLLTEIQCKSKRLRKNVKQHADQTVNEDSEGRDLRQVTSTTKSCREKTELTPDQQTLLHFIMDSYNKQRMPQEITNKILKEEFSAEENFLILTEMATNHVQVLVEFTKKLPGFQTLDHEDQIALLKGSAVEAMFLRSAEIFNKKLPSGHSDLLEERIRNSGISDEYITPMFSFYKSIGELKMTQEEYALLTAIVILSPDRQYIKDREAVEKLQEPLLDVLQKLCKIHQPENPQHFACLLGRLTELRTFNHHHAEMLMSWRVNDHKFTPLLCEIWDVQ
Briefly: Antagonist activity at human FXR expressed in Huh7 cells assessed as inhibition of CDCA-induced FXR response element driven luciferase activity after 24 hrs. The format is cell-based.

A short description of data set [8]: Terminal half life in Sprague-Dawley rat at 1 mg/ml/kg, iv dissolved in 10% HP-beta-CD measured after 60 to 360 min after administration. The format is ADME, organism-based. To be noted: in vivo, 1 mg/kg.
The nature of data set [9]: AUC (0 to 360 mins) in Sprague-Dawley rat at 30 mg/5 ml/kg, po dissolved in 40% HP-beta-CD by trapezoidal method. The format is ADME, organism-based. On the set-up: time < 6 hr, dose 5 ml/kg, route oral. As to conditions: in vivo, 30 mg/kg.
Data set [10] is described as follows: Oral bioavailability in Sprague-Dawley rat at 30 mg/5 ml/kg dissolved in 40% HP-beta-CD. The format is ADME, organism-based. To be noted: in vivo, 30 mg/kg.
Data set [11] in a line: Tmax in Sprague-Dawley rat at 30 mg/5 ml/kg, po dissolved in 40% HP-beta-CD. The format is ADME, organism-based. To be noted: in vivo, 30 mg/kg.
The next data set has as its system Huh-7. Briefly: Cytotoxicity against human HuH7 cells assessed as reduction in cell viability incubated for 24 hrs by MTT assay. The format is cell-based. To be noted: Huh-7, 24 h. In general terms: Tetrazolium assays rely on reduction of a dye to a coloured formazan, in cell work by metabolically active cells.
For data set [12], the target named is T1, Bile acid receptor. The data set is described as follows: Antagonist activity at GST-tagged FXR LBD (unknown origin) assessed as inhibition of GW4064-induced fluorecein-labeled SRC2-2 coactivator recruitment by Lanthascreen TR-FRET assay. (TR-FRET usually uses a lanthanide donor and a delayed reading to cut background.)
The nature of data set [13]: Ratio of drug concentration in liver to plasma of Sprague-Dawley rat at 30 mg/kg, po dissolved in 40% HP-beta-CD measured after 360 mins by LC-MS/MS analysis. The format is ADME, organism-based.
The nature of data set [14]: Ratio of drug concentration in ileum to plasma of Sprague-Dawley rat at 30 mg/kg, po dissolved in 40% HP-beta-CD measured after 360 mins by LC-MS/MS analysis. The format is ADME, organism-based.

Usually Cmax stands for the maximum level reached in the sampled fluid or tissue. By AUC(0-t) is commonly meant the area under the concentration-time curve up to a stated or last time point. A higher AUC(0-t) goes with more exposure. One may read the IC50 as the concentration needed to halve the response being measured. Usually bioavailability stands for the share of a dose that reaches the circulation, judged against a reference dose that is usually intravenous. Read a high bioavailability as much systemic uptake. A word on the Tmax: it is the time from dosing to the highest level. Broadly, the Kp is the ratio of the level in a tissue or fluid to that in plasma or blood.

As for `Cc1ccc2nc([C@H](CC3CCN(C(=O)C(C)C)CC3)N3C(=O)CN(c4ccc(Oc5ccccc5)cc4)C3=O)n(C)c2c1`, in data set [1], the Vd was found to be 8.9 L/kg. The concentration at 6 h in data set [2] came out at 225 ng/g; in data set [3], 135 ng/g. The molecule also came in with a Cmax in data set [4] of 53.4 ng/mL. Further, the dose excreted in [5] amounted to 0.64%. Also, the AUC(0-t) at 6 h is 182 ng·h/mL in data set [6] and 146 ng·h/mL in data set [9]. The concentration for half-maximal inhibition (IC50) at Bile acid receptor [7] is under 0.001 nM. The half-life in [8] (read-out: beta t1/2) was determined as 2.07 h. In data set [10], this molecule gave a bioavailability of 2.76%. For the same molecule, the time to peak (Tmax) in data set [11] is 0.5 h.

`CCN(CC)C(=O)c1ccc(C[C@@H](c2nc3ccc(C)cc3n2C)N2C(=O)CN(c3ccc(Oc4ccccc4)cc3)C2=O)cc1`: the IC50 was 1100 nM on Bile acid receptor [7], over 100000 nM with Huh-7 and 2800 nM at Bile acid receptor [12].

For `Cc1ccc2nc([C@H](CC3CCN(C(=O)C(C)C)CC3)N3C(=O)CN(c4ccc(Oc5ccc(F)cc5)cc4)C3=O)n(C)c2c1`, the results for the IC50 on Bile acid receptor [7], with Huh-7 and on Bile acid receptor [12] were 0.05 nM, over 100000 nM and 35 nM, respectively.

Regarding `Cc1ccc2nc([C@H](Cc3ccc(C#N)cc3)N3C(=O)CN(c4ccc(Oc5ccccc5)cc4)C3=O)n(C)c2c1`, the results for the IC50 on Bile acid receptor [7], with Huh-7 and on Bile acid receptor [12] were 781 nM, over 100000 nM and 7100 nM, respectively.

Consider `Cc1ccc2nc([C@H](CC3CCN(S(=O)(=O)C(C)C)CC3)N3C(=O)CN(c4ccc(Oc5ccccc5)cc4)C3=O)n(C)c2c1`, for which the IC50 on Bile acid receptor [7] is 59.8 nM; in the data set with Huh-7, over 100000 nM; on Bile acid receptor [12], 126000 nM.

For the molecule `Cc1ccc2nc([C@H](Cc3ccc(Cl)cc3)N3C(=O)CN(c4ccc(Oc5ccccc5)cc4)C3=O)n(C)c2c1`, the IC50 at Bile acid receptor [7] is over 20000 nM; with Huh-7 it was over 100000 nM; on Bile acid receptor [12], over 400000 nM.

For the molecule `Cc1ccc2nc([C@H](Cc3ccccc3)N3C(=O)CN(c4ccc(Oc5ccccc5)cc4)C3=O)n(C)c2c1`, the IC50 at Bile acid receptor [7] was 81 nM; in the data set with Huh-7, over 100000 nM; at Bile acid receptor [12] it was over 400000 nM.

For `Cc1ccc2nc([C@H](CC3CCN(C(=O)C(C)C)CC3)NC(=O)Nc3ccc(Oc4ccccc4)cc3)n(C)c2c1`, the results for the IC50 on Bile acid receptor [7], in the data set with Huh-7 and at Bile acid receptor [12] were over 20000 nM, over 100000 nM and over 400000 nM, respectively.

Take `Cc1ccc2nc([C@@H](CC3CCN(C(=O)C(C)C)CC3)N3C(=O)CN(c4ccc(Oc5ccccc5)cc4)C3=O)n(C)c2c1`: the IC50 at Bile acid receptor [7] was 41 nM; with Huh-7, over 100000 nM; at Bile acid receptor [12], 2700 nM.

For the molecule `Cc1ccc2nc([C@H](CC3CCN(C(=O)C(C)C)CC3)NC(=O)c3ccc(Oc4ccccc4)cc3)n(C)c2c1`, the IC50 was over 20000 nM on Bile acid receptor [7], over 100000 nM with Huh-7 and over 400000 nM on Bile acid receptor [12].

For the molecule `Cc1ccc2nc([C@H](CC3CCN(C(=O)NC(C)C)CC3)N3C(=O)CN(c4ccc(Oc5ccccc5)cc4)C3=O)n(C)c2c1`, the IC50 was 18.3 nM on Bile acid receptor [7], over 100000 nM in the data set with Huh-7 and 1500 nM on Bile acid receptor [12].

As for `Cc1ccc2nc([C@H](CC3CCN(C(=O)C(C)C)CC3)N3CC(=O)N(c4ccc(Oc5ccccc5)cc4)CC3=O)n(C)c2c1`, the IC50 at Bile acid receptor [7] is 859 nM; in the data set with Huh-7 it was over 100000 nM; at Bile acid receptor [12], 15000 nM.

For `Cc1ccc2nc([C@H](Cc3ccc(C(N)=O)cc3)N3C(=O)CN(c4ccc(Oc5ccccc5)cc4)C3=O)n(C)c2c1`, the IC50 is 6240 nM at Bile acid receptor [7], over 100000 nM with Huh-7 and 27300 nM at Bile acid receptor [12].

For the molecule `Cc1ccc2nc([C@H](CC3CCN(C(=O)C(C)C)CC3)N3C(=O)CN(c4ccc(Oc5ccccc5)cc4)C3=O)n(CC(C)C)c2c1`, the IC50 at Bile acid receptor [7] was 2.4 nM; in the data set on Huh-7 it was over 100000 nM; at Bile acid receptor [12], 330 nM.

With `Cc1ccc2nc([C@H](CC3CCN(C(=O)C(C)C)CC3)N3CCN(c4ccc(Oc5ccccc5)cc4)C3=O)n(C)c2c1`, the IC50 on Bile acid receptor [7] is 799 nM; in the data set on Huh-7 it was over 100000 nM; at Bile acid receptor [12], 4800 nM.

With `COc1ccc(Oc2ccc(N3CC(=O)N([C@@H](CC4CCN(C(=O)C(C)C)CC4)c4nc5ccc(C)cc5n4C)C3=O)cc2)cc1`, the Vd in data set [1] amounted to 3.86 L/kg. The concentration at 6 h in data set [2] was 1540 ng/g; in data set [3], 1370 ng/g. In [5], the dose excreted was determined as 0.23%. Also, the AUC(0-t) at 6 h is 292 ng·h/mL in data set [6] and 1580 ng·h/mL in data set [9]. The values for the IC50 at Bile acid receptor [7], in the data set with Huh-7 and at Bile acid receptor [12] were under 0.001 nM, over 100000 nM and 7 nM, respectively. This molecule also showed a half-life in [8] of 1.37 h. In addition, the values for the partition ratio (Kp) at 6 h in data set [13] and in [14] were 15 and 13, respectively. Besides, the Tmax in data set [11] was 2 h.

With `Cc1ccc2nc([C@H](CC3CCN(C(=O)C(C)C)CC3)N3C(=O)CN(c4ccc(Oc5ccccc5)cc4)C3=O)n(-c3ccc(F)cc3)c2c1`, the IC50 on Bile acid receptor [7] is 978 nM; in the data set on Huh-7 it was over 100000 nM; at Bile acid receptor [12], 2900 nM.

With `Cc1ccc2nc([C@H](CC3CCN(C(=O)C(C)C)CC3)N3C(=O)CN(c4ccc(Oc5ccc(Cl)cc5)cc4)C3=O)n(C)c2c1`, the figures for the half-inhibitory concentration (IC50) on Bile acid receptor [7], in the data set with Huh-7 and at Bile acid receptor [12] were 9.3 nM, over 100000 nM and 27 nM, respectively.

As to `Cc1ccc2c(c1)nc([C@H](CC1CCN(C(=O)C(C)C)CC1)N1C(=O)CN(c3ccc(Oc4ccccc4)cc3)C1=O)n2C`, the figures for the IC50 at Bile acid receptor [7], in the data set with Huh-7 and at Bile acid receptor [12] were under 0.001 nM, over 100000 nM and 51 nM, respectively.

For the molecule `Cc1ccc2nc([C@H](Cc3ccc(C(=O)NC(C)C)cc3)N3C(=O)CN(c4ccc(Oc5ccccc5)cc4)C3=O)n(C)c2c1`, the figures for the IC50 on Bile acid receptor [7], in the data set on Huh-7 and at Bile acid receptor [12] were 2690 nM, over 100000 nM and 38700 nM, respectively.

With `Cc1ccc2nc([C@H](CC3CCN(C(=O)C(C)C)CC3)N3C(=O)CN(c4ccc(OC5CCCCC5)cc4)C3=O)n(C)c2c1`, the IC50 on Bile acid receptor [7] came to 53 nM; in the data set on Huh-7, 64300 nM; at Bile acid receptor [12] it was 180 nM.

(Values after ChEMBL document CHEMBL4340545, “Identification of potent farnesoid X receptor (FXR) antagonist showing favorable PK profile and distribution toward target tissues: Comprehensive understanding of structure-activity relationship of FXR antagonists” (Bioorg Med Chem, 2019).)
